Assay results from patent publication US9802937B2, “Substituted pyrazolo{4,3-D}pyrimidines as kinase inhibitors” (ORIGENIS GMBH, priority 2011, dated 2017).

Legend:
LRRK2 = LRRK2 (Homo sapiens, UniProt Q5S007); experiment: LRRK2-LRRK2 G2019S-Assay (LanthaScreen Eu Kinase Binding Assay); settings: 5 nM LRRK2 or their mutants, 10 nM tracer 236, RT 1 h; read-out: LRRK2 Activities: IC50
Summary of the method: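 TR-FRET tracer-displacement binding assay with 5 nM LRRK2 or mutant, 2 nM Eu-anti-GST antibody and 10 nM tracer 236 in kinase buffer A. Incubated 1 h at RT; 665/615 nm emission ratio read (ex 340 nm). IC50 from variable-slope sigmoidal fit.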

MYLK = MYLK (Homo sapiens, UniProt Q15746); experiment: MYLK Assay (LanthaScreen Eu Kinase Binding Assay); settings: 5 nM MYLK, 30 nM tracer 236, RT 1 h; read-out: MYLK Activities: IC50
Sequence of MYLK (Q15746 whole entry): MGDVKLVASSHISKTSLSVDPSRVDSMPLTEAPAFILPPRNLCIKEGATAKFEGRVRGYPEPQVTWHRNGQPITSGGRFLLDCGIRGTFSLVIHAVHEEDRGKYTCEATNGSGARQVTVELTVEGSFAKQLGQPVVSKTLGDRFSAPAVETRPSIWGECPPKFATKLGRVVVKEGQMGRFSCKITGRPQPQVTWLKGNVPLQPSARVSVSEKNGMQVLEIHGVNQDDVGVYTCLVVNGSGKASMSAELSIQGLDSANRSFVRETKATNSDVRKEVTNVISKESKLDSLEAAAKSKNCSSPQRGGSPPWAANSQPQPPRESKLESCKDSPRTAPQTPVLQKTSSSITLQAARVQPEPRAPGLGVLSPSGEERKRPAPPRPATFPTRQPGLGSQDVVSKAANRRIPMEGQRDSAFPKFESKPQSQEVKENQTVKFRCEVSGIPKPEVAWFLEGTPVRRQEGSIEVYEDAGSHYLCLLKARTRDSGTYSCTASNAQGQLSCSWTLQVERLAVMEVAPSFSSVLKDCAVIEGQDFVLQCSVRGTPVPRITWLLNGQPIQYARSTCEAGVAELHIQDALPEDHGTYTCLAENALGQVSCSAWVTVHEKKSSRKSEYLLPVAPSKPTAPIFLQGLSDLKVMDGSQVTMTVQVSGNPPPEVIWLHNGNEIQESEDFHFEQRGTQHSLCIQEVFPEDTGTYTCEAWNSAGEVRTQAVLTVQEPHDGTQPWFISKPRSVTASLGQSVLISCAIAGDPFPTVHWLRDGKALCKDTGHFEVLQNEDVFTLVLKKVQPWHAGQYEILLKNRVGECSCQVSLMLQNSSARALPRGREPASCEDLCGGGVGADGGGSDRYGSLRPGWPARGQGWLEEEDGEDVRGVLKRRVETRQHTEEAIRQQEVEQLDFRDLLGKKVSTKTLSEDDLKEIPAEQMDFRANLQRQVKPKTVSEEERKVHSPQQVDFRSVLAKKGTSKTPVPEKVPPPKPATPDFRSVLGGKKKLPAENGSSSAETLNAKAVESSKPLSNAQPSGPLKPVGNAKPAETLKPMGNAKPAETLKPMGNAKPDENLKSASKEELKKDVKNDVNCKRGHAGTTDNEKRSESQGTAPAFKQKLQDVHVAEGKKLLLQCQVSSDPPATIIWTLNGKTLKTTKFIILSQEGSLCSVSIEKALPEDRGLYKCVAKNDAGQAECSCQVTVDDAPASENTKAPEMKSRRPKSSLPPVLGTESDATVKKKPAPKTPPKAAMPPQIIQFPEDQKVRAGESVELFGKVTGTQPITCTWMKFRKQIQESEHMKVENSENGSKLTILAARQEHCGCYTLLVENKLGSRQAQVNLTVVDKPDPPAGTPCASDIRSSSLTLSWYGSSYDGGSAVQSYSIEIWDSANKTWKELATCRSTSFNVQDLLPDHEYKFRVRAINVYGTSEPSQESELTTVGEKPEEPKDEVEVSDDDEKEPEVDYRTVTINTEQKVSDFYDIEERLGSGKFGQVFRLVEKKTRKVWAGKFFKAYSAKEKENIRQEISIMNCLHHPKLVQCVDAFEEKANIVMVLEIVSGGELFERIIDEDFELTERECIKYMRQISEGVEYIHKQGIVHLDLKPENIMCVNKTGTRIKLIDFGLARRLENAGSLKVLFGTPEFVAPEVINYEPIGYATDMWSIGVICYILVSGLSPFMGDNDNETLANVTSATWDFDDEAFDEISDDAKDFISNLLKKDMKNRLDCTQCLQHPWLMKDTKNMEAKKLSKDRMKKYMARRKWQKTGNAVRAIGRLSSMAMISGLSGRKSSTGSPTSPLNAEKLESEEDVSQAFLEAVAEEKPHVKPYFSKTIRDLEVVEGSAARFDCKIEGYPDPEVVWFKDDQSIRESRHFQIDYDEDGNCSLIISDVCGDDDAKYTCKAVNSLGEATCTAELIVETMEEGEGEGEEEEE
Procedure: In the assay LanthaScreen™ Eu Kinase Binding Assay by Invitrogen Corporation (Carlsbad) the effect of invention of a compound on the phosphorylation is determined by measurement of fluorescence intensity emission ratio based on the binding and displacement of a proprietary, Alexa Fluor® 647-labeled, ATP-competitive kinase inhibitor scaffold (kinase tracer) to the kinase of interest as described above.
To the wells of an 384 well small volume plate (Greiner, Frickenhausen) are added (i) the compound under test in 5% is DMSO/distilled water (5 μl), (ii) 5 μl of the kinase antibody mixture resulting in a final concentration 5 nM MYLK, 2 nM EU-Anti-GST antibody in 1× kinase buffer A. The reaction was started with addition of (iii) 5 μl resulting in a final concentration of 30 nM tracer 236. The assay plate was incubated at RT for 1 h and fluorescence intensity readings were collected using a TECAN M1000 at two wavelengths of λex 340/λem 615 nm and λex 340/λem 665 nm with a delay time of 100 μs and an integration time of 200 μs after 60 minutes. The emission ratio was calculated by division of the acceptor/tracer emission ([…]) by the antibody/donor emission ([…]). The inhibitor concentration was plotted versus the emission ratio to determine the IC50 using XLFit 5.0 (IDBS, Guildford) to fit to a sigmoidal dose response curve with a variable slope.

SYK kinase = molecular target: T1, SYK kinase (Homo sapiens, UniProt P43405); experiment: SYK Assay (OMNIA KINASE ASSAY, SOX peptide fluorescence); format: biochemical; settings: apparent Ki calculated from the IC50 using the Cheng-Prusoff equation; 1 mM ATP, 30° C.; read-out: SYK Activities: Ki
T1 construct: purchased Invitrogen, Carlsbad
Summary of the method: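 Continuous Omnia assay: SYK phosphorylation of SOX-labelled Tyr 7 peptide (10 µM) with 1 mM ATP and 0.2 mM DTT at 30 °C. Fluorescence (ex 360/em 485 nm) read every 30 s for 30 min. Reaction velocity versus inhibitor concentration gives IC50, converted to apparent Ki by Cheng-Prusoff.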

Syk = settings: various stimuli, including FcepsilonR1 and BCR induced Syk activation; cited from earlier work
JAK kinases = settings: cited from earlier work
[1] = tested on: refractory NHL and chronic lymphocytic leukemia; settings: phase II; cited from earlier work
[2] = tested on: lymphoma cell lines and primary human lymphoma samples; settings: cited from earlier work

Sequence of LRRK2 (Q5S007 970-2527 limits assumed): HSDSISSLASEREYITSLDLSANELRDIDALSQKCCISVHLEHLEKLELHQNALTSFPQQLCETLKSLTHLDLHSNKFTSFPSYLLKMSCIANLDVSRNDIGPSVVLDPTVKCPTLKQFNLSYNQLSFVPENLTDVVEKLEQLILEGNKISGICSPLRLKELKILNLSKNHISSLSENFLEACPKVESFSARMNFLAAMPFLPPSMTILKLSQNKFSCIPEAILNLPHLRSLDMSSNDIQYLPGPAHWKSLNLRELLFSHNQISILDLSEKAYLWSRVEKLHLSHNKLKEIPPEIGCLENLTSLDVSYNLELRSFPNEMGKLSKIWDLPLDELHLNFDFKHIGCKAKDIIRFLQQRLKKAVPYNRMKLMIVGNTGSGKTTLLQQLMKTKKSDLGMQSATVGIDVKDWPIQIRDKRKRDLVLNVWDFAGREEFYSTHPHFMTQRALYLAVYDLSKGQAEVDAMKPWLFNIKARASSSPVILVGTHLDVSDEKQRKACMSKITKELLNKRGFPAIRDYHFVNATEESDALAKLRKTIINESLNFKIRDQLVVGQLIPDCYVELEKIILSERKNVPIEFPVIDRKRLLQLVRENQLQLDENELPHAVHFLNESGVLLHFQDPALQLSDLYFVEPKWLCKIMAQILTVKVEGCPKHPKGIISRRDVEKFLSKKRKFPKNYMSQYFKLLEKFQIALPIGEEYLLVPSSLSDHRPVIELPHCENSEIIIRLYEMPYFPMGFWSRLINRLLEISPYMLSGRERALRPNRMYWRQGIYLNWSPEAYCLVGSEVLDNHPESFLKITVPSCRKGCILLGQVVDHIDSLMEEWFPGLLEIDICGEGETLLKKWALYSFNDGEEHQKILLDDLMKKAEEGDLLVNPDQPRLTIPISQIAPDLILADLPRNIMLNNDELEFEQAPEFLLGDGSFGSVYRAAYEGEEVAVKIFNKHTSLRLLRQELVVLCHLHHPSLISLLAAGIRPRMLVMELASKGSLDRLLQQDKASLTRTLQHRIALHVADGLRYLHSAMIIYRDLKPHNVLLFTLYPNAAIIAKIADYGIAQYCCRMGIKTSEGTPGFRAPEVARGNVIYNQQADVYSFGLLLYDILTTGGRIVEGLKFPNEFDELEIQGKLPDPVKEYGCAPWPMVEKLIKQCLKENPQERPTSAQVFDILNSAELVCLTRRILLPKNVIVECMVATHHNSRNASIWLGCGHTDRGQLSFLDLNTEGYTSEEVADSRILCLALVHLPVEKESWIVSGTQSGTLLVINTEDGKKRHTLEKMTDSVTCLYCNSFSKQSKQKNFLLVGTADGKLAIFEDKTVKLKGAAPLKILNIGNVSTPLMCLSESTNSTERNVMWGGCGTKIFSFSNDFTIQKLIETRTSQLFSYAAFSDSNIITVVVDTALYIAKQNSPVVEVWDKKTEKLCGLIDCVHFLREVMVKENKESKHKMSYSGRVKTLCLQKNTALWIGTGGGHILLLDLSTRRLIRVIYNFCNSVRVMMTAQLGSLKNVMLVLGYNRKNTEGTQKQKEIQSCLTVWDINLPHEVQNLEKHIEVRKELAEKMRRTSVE

| IC50 (LRRK2) [nM] | IC50 (MYLK) [nM] | Ki (SYK kinase) [nM] | SMILES | inhibition of ITAM signaling (Syk) | activity against JAK kinases (JAK kinases) | clinical result [1] | BCR signaling ([2]; lymphoma cell lines and primary human lymphoma samples) | apoptosis ([2]; lymphoma cell lines) |
| --- | --- | --- | --- | --- | --- | --- | --- | --- |
| 100 to 1000 | < 5000 | < 10 | COc1ccc(-c2nc(Nc3ccc(OC)c(OC)c3)c3[nH]ncc3n2)cc1 [Example #58, N-(3,4-dimethoxyphenyl)-5-(4-methoxyphenyl)-1H-pyrazolo[4,3-d]pyrimidin-7-amine] | – | – | – | – | – |
| 100 to 1000 | < 5000 | < 10 | CN1CCN(c2ccc(Nc3nc(-c4ccncc4)nc4cn[nH]c34)cc2)CC1 [Example #20, N-(4-(4-methylpiperazin-1-yl)phenyl)-5-(pyridin-4-yl)-1H-pyrazolo[4,3-d]pyrimidin-7-amine] | – | – | – | – | – |
| 100 to 1000 | < 5000 | < 10 | COc1cccc(-c2nc(Nc3ccc(CN4CCCC4)cc3)c3[nH]ncc3n2)c1 [Example #132, 5-(3-methoxyphenyl)-N-(4-(pyrrolidin-1-ylmethyl)phenyl)-1H-pyrazolo[4,3-d]pyrimidin-7-amine] | – | – | – | – | – |
| 100 to 1000 | < 5000 | < 10 | CN1CCN(c2ccc(Nc3nc(-c4ccccc4)nc4cn[nH]c34)cc2)CC1 [Example #35, N-(4-(4-methylpiperazin-1-yl)phenyl)-5-phenyl-1H-pyrazolo[4,3-d]pyrimidin-7-amine] | – | – | – | – | – |
| 100 to 1000 | < 5000 | < 10 | CS(=O)(=O)Nc1cccc(-c2nc(Nc3ccc(N4CCNCC4)cc3)c3[nH]ncc3n2)c1 [Example #188, N-(3-(7-((4-(piperazin-1-yl)phenyl)amino)-1H-pyrazolo[4,3-d]pyrimidin-5-yl)phenyl)methanesulfonamide] | – | – | – | – | – |
| 100 to 1000 | < 5000 | 10 to 100 | c1ccn2cc(-c3nc(Nc4ccc5cn[nH]c5c4)c4[nH]ncc4n3)nc2c1 [Example #127, 5-(imidazo[1,2-a]pyridin-2-yl)-N-(1H-indazol-6-yl)-1H-pyrazolo[4,3-d]pyrimidin-7-amine] | – | – | – | – | – |
| 10 to 100 | < 5000 | < 10 | CN1CCN(c2ccc(Nc3nc(-c4cccs4)nc4cn[nH]c34)cc2)CC1 [Example #70, N-(4-(4-methylpiperazin-1-yl)phenyl)-5-(thiophen-2-yl)-1H-pyrazolo[4,3-d]pyrimidin-7-amine] | – | – | – | – | – |
| 100 to 1000 | < 5000 | < 10 | CC(=O)N1CCN(c2ccc(Nc3nc(-c4cccs4)nc4cn[nH]c34)cc2)CC1 [Example #138, 1-(4-(4-((5-(thiophen-2-yl)-1H-pyrazolo[4,3-d]pyrimidin-7-yl)amino)phenyl)piperazin-1-yl)ethan-1-one] | – | – | – | – | – |

Second part, the compound before the results:

| SMILES | IC50 (LRRK2) [nM] | IC50 (MYLK) [nM] | Ki (SYK kinase) [nM] | inhibition of ITAM signaling (Syk) | activity against JAK kinases (JAK kinases) | clinical result [1] | BCR signaling ([2]; lymphoma cell lines and primary human lymphoma samples) | apoptosis ([2]; lymphoma cell lines) |
| --- | --- | --- | --- | --- | --- | --- | --- | --- |
| c1csc(-c2nc(Nc3ccc(N4CCN(C5CC5)CC4)cc3)c3[nH]ncc3n2)c1 [Example #293, N-(4-(4-cyclopropylpiperazin-1-yl)phenyl)-5-(thiophen-2-yl)-1H-pyrazolo[4,3-d]pyrimidin-7-amine] | 100 to 1000 | < 5000 | < 10 | – | – | – | – | – |
| Nc1cccc(Nc2nc(-c3ccsc3)nc3cn[nH]c23)c1 [Example #117, N1-(5-(thiophen-3-yl)-1H-pyrazolo[4,3-d]pyrimidin-7-yl)benzene-1,3-diamine] | 10 to 100 | < 5000 | < 10 | – | – | – | – | – |
| COc1ccc(Nc2nc(-c3ccc4cn[nH]c4c3)nc3cn[nH]c23)cc1OC [Example #280, N-(3,4-dimethoxyphenyl)-5-(1H-indazol-6-yl)-1H-pyrazolo[4,3-d]pyrimidin-7-amine] | 10 to 100 | < 5000 | < 10 | – | – | – | – | – |
| c1ccc2sc(-c3nc(Nc4ccc5c(c4)NCCO5)c4[nH]ncc4n3)nc2c1 [Example #97, N-(5-(benzo[d]thiazol-2-yl)-1H-pyrazolo[4,3-d]pyrimidin-7-yl)-3,4-dihydro-2H-benzo[b][1,4]oxazin-6-amine] | 100 to 1000 | < 5000 | 10 to 100 | – | – | – | – | – |
| COc1cc(Nc2ncc(F)c(Nc3ccc4c(n3)NC(=O)C(C)(C)O4)n2)cc(OC)c1OC [Example R406] | – | – | – | inhibit ITAM signaling | active | favorable results | attenuates BCR signaling | resulting in apoptosis of the former |
| c1cc(N2CCOCC2)ccc1Nc1nc(-c2ccc3cn[nH]c3c2)nc2cn[nH]c12 [Example #247, 5-(1H-indazol-6-yl)-N-(4-morpholinophenyl)-1H-pyrazolo[4,3-d]pyrimidin-7-amine] | < 10 | < 5000 | < 10 | – | – | – | – | – |
| c1csc(-c2nc(Nc3ccc(CN4CCOCC4)cc3)c3[nH]ncc3n2)c1 [Example #295, N-(4-(morpholinomethyl)phenyl)-5-(thiophen-2-yl)-1H-pyrazolo[4,3-d]pyrimidin-7-amine] | 100 to 1000 | < 5000 | < 10 | – | – | – | – | – |
| c1csc(-c2nc(Nc3ccc4c(c3)NCCO4)c3[nH]ncc3n2)c1 [Example #91, N-(5-(thiophen-2-yl)-1H-pyrazolo[4,3-d]pyrimidin-7-yl)-3,4-dihydro-2H-benzo[b][1,4]oxazin-6-amine] | 10 to 100 | < 5000 | < 10 | – | – | – | – | – |
| CN1CCN(c2ccc(Nc3nc(-c4cccc(NS(C)(=O)=O)c4)nc4cn[nH]c34)cc2)CC1 [Example #187, N-(3-(7-((4-(4-methylpiperazin-1-yl)phenyl)amino)-1H-pyrazolo[4,3-d]pyrimidin-5-yl)phenyl)methanesulfonamide] | 100 to 1000 | < 5000 | < 10 | – | – | – | – | – |
| CN1CCN(c2ccc(Nc3nc(-c4nc5ccccc5s4)nc4cn[nH]c34)cc2)CC1 [Example #95, 5-(benzo[d]thiazol-2-yl)-N-(4-(4-methylpiperazin-1-yl)phenyl)-1H-pyrazolo[4,3-d]pyrimidin-7-amine] | 10 to 100 | < 5000 | < 10 | – | – | – | – | – |
| CC(C)(C)N1CCN(c2ccc(Nc3nc(-c4ccsc4)nc4cn[nH]c34)cc2)CC1 [Example #161, N-(4-(4-(tert-butyl)piperazin-1-yl)phenyl)-5-(thiophen-3-yl)-1H-pyrazolo[4,3-d]pyrimidin-7-amine] | 10 to 100 | < 5000 | < 10 | – | – | – | – | – |
| CC(=O)N1CCN(c2ccc(Nc3nc(-c4ccsc4)nc4cn[nH]c34)cc2)CC1 [Example #144, 1-(4-(4-((5-(thiophen-3-yl)-1H-pyrazolo[4,3-d]pyrimidin-7-yl)amino)phenyl)piperazin-1-yl)ethan-1-one] | < 10 | < 5000 | < 10 | – | – | – | – | – |
| CN1CCN(c2ccc(Nc3nc(-c4ccc5cn[nH]c5c4)nc4cn[nH]c34)cc2)CC1 [Example #248, 5-(1H-indazol-6-yl)-N-(4-(4-methylpiperazin-1-yl)phenyl)-1H-pyrazolo[4,3-d]pyrimidin-7-amine] | 100 to 1000 | < 5000 | < 10 | – | – | – | – | – |
| CN1CCN(c2ccc(Nc3nc(-c4ccccc4F)nc4cn[nH]c34)cc2)CC1 [Example #275, 5-(2-fluorophenyl)-N-(4-(4-methylpiperazin-1-yl)phenyl)-1H-pyrazolo[4,3-d]pyrimidin-7-amine] | 100 to 1000 | < 5000 | < 10 | – | – | – | – | – |
| O=C(c1ccc(Nc2nc(-c3cccs3)nc3cn[nH]c23)cc1)N1CCOCC1 [Example #294, morpholino(4-((5-(thiophen-2-yl)-1H-pyrazolo[4,3-d]pyrimidin-7-yl)amino)phenyl)methanone] | 100 to 1000 | < 5000 | 10 to 100 | – | – | – | – | – |
| CN1CCN(C(=O)c2ccc(Nc3nc(-c4cccs4)nc4cn[nH]c34)cc2)CC1 [Example #134, (4-methylpiperazin-1-yl)(4-((5-(thiophen-2-yl)-1H-pyrazolo[4,3-d]pyrimidin-7-yl)amino)phenyl)methanone] | 100 to 1000 | < 5000 | < 10 | – | – | – | – | – |
